Paper PMC8766756, “Insights on Cancer Cell Inhibition, Subcellular Activities, and Kinase Profile of Phenylacetamides Pending 1H-Imidazol-5-One Variants” (Frontiers in Pharmacology, 2022)

Columns and labels:
[1] = molecular target: T1, EphA8 (P29322) (Homo sapiens, UniProt P29322); test: PamChip tyrosine kinase microarray; assay type: biochemical; conditions: 0.1 µM, HL60 lysate
T1 construct: purchased PamGene (PamChip PTK array, Upstream Kinase Analysis)
T1 sequence (P29322 28-1005): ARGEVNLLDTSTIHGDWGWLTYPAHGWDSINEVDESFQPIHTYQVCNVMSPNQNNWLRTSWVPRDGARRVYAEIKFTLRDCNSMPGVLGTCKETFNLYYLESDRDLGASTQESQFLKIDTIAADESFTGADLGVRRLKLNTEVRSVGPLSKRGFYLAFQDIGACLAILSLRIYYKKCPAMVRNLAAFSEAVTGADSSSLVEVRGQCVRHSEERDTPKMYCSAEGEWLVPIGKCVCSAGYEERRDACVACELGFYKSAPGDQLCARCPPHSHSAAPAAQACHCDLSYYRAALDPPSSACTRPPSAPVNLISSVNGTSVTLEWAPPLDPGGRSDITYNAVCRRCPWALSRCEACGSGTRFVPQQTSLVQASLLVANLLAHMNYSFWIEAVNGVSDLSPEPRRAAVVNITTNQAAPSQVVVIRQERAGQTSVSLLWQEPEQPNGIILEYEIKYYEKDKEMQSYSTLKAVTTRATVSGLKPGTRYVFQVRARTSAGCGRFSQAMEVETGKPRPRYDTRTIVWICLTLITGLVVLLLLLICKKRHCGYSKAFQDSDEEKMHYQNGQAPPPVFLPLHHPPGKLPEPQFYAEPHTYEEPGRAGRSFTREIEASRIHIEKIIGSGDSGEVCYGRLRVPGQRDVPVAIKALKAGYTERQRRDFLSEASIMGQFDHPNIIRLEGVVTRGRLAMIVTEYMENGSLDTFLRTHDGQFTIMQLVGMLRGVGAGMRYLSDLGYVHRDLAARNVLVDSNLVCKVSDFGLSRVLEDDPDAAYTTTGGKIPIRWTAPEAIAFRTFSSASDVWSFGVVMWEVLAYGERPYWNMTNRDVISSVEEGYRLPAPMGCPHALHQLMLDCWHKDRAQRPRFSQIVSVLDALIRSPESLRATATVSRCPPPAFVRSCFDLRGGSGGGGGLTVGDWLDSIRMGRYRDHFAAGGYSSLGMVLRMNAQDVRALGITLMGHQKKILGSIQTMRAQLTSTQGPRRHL
In short: (§1)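 HL60 (AML) cell lysate was spiked with compound at 0.001, 0.01, 0.1, 1, 10 and 50 µM, or 2% v/v DMSO as control, then profiled in technical replicates on a tyrosine kinase peptide array of 196 phosphosites. Kinase activity was inferred from peptide-set changes using an upstream kinase tool.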

[2] = molecular target: T2, LTK (P29376) (Homo sapiens, UniProt P29376); test: PamChip tyrosine kinase microarray; assay type: biochemical; conditions: 0.1 µM, HL60 lysate
T2 construct: purchased PamGene (PamChip PTK array, Upstream Kinase Analysis)
In short: as §1

T2 sequence (P29376 17-864): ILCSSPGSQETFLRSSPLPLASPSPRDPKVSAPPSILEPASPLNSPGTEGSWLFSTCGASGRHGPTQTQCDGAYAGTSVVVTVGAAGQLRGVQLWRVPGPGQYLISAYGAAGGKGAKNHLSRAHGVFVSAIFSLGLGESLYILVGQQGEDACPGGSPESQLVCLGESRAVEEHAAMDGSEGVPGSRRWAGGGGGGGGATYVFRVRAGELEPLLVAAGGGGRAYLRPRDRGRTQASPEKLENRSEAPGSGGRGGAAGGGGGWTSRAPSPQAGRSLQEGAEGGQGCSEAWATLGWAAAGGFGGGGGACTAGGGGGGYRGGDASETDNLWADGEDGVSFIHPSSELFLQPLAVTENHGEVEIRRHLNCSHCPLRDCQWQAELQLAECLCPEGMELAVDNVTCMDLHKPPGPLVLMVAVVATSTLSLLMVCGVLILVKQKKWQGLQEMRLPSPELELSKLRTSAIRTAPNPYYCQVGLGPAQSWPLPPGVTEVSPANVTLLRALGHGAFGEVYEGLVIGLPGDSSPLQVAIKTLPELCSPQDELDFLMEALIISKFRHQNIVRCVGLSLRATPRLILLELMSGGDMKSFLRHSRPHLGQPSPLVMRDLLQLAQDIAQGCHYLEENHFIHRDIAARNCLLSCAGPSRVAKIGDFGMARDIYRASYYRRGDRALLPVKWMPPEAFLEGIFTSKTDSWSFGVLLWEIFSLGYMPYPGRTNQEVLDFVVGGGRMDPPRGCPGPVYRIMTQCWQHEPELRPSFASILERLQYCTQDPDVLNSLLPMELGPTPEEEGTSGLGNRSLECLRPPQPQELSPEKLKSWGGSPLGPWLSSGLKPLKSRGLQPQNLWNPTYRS

For `COc1ccc(/C=C2\N=C(C)N(c3ccc(CC(=O)NCc4ccccc4)cc3)C2=O)cc1` [Compound 4c, (Z)-N-Benzyl-2-(4-(4-(4-methoxybenzylidene)-2-methyl-5-oxo-4,5-dihydro-1H-imidazol-1-yl)phenyl)acetamide], the “Mean Final score (Kinase score)” value [1] was 2.201, the “Mean Kinase Statistic” value [1] was -0.925 and the “Mean Significance Score” value [1] was 1.989. For the same compound, the “Mean Specificity Score” value [1] was 0.1251, the “Mean Final score (Kinase score)” value [2] was 1.968 and the “Mean Kinase Statistic” value [2] was -1.055. The “Mean Significance Score” value [2] was 1.724 and the “Mean Specificity Score” value [2] was 0.1654.
